From patent publication US8796209B2, “Compositions and methods related to anti-FGF agents” (The Regents of the University of California, priority 2005, dated 2014) come the findings set out here.

Assay type in all cases: cell-based
In experiment [1] the test system is M21 human melanoma cells. Nature of the experiment: Chemoresistance: cell viability with etoposide (MTS). The settings on record: etoposide 0.1-100 μM, 48 h. Here is the method:
In FIG. 10, results are provided showing suppression of FGF-induced drug resistance in M21 melanoma cells. Resistance of melanoma cells was to etoposide-induced apoptosis. M21 human melanoma cells were cultured in DMEM with 1% FBS for 48 h, and then treated with etoposide (0.1-100 μM) in the presence or absence of wt or mutant FGF for 48 h, with cell viability determined.
(§1) Cells were plated on well of 96-well tissue culture plates and serum-starved for 48-72 h in DMEM supplemented with 0-1% FBS. Then cells were treated with etoposide (up to 100 μM) and wt or mutant FGF for additional 24-48 h. Cell viability was determined using CellTiter 96 MTS assay (Promega) and caspases 3/7 activity was determined by using Caspase-Glo 3/7 assay kit (Promega). FIGS. 10 and 11.

Experiment [2] deals with M21 human melanoma cells. Nature of the experiment: Chemoresistance: caspases 3/7 activity with etoposide. The settings on record: in presence of wt FGF. Here is the method:
M21 human melanoma cells were cultured in DMEM with 1% FBS for 48 h, and then treated with etoposide (0.1-100 μM) in the presence or absence of wt or mutant FGF for 48 h.
as §1

Experiment [3] deals with αvβ3-K562 cells. Nature of the experiment: Cell adhesion assay on immobilized FGF-1, αvβ3-K562 cells. The conditions noted are these: 1 mM MnCl2. The method, then:
Wells of 96-well microtiter plates were coated with FGF-1 at the indicated concentrations and remaining protein binding sites were blocked with 1 mg/ml BSA. Hepes-Tyrode buffer supplemental with 1 mM MnCl2) was used for adhesion assays. Prior to incubation with immobilized FGF-1, αvβ3-K562 cells were treated with 10 μg/ml anti-β3 function-blocking antibody 7E3 (triangle), anti-α5 function-blocking antibody KH72 (square), both 7E3 and KH72 (circle), or mouse IgG (diamond). BSA (cross) was used as a negative control. Data is shown as means+/−SD of triplicate experiments.
Wells of polystyrene 96-well non-tissue culture plate were coated with wild type or mutants FGF-1 as above. In adhesion assay, cells (10^5 cells/well) in 100 μl of Hepes-Tyrode buffer supplemented with 1 mM Mn^2+ were added to the wells and incubated at 37° C. for 1 h. After non-bound cells were removed by rinsing the wells with the same buffer, bound cells were quantified by measuring endogenous phosphatase activity (Prater et al., 1991)

In the case of “R50E: FGF-1 mutant with the Arg-50 to Glu (R50E) mutation”, in experiment [1], the “effect on apoptosis induced by etoposide” value is listed as “enhanced apoptosis”. In addition, in experiment [2], the “effect on caspase activation” value is listed as “blocked inhibition of caspase activation”. Regarding “Wild type: human FGF-1 (acidic FGF), wild type, expressed in E. coli”, the “adhesion of αvβ3-K562 cells to the immobilized protein” value in experiment [3] is listed as “bound to immobilized FGF-1 in a dose-dependent manner”.
